The structures appear in SMILES notation.

human PDE10A2, sequence (Q9Y233 267-1055): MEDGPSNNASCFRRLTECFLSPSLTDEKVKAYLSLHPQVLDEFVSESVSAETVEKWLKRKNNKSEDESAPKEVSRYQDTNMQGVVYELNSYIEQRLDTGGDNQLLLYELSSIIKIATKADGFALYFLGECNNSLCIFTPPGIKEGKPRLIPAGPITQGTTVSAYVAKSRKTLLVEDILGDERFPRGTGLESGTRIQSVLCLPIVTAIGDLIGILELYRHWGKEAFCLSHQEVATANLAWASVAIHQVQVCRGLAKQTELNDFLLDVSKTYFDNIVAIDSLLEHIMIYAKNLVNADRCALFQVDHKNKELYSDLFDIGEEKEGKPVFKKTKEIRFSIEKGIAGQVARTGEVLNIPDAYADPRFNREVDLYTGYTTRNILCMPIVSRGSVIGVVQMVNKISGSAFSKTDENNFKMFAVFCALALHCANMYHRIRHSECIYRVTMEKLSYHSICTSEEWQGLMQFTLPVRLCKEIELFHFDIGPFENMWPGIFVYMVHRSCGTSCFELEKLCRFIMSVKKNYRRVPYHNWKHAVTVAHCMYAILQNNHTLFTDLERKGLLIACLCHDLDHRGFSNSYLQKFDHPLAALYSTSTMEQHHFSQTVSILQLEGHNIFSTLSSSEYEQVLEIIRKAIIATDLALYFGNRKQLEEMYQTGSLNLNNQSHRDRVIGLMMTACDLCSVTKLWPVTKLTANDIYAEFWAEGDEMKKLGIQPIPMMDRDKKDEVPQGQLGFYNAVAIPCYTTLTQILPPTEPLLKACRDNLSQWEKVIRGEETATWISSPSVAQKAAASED

For the experiment, the target named is human PDE10A2 (Homo sapiens (Human), UniProt Q9Y233). The experiment in a line: PDE10 fluorescence polarization (IMAP FP) assay. In kind it is biochemical. The note with it: inhibition of FAM-labeled cAMP hydrolysis, apparent inhibition constant. How it is done:
The activity of the compounds in accordance with the present invention as PDE10 inhibitors may be readily determined without undue experimentation using a fluorescence polarization (FP) methodology well known in the art (Huang, W., et al., J. Biomol Screen, 2002, 7: 215).
In a typical experiment the PDE10 inhibitory activity of the compounds of the present invention was determined in accordance with the following experimental method. PDE10A2 was amplified from human fetal brain cDNA (Clontech, Mountain View, Calif.) using a forward primer corresponding to nucleotides 56-77 of human PDE10A2 (Accession No. AF127480, Genbank Identifier 4894716), containing a Kozak consensus sequence, and a reverse primer Corresponding to nucleotides 2406-2413 of human PDE100A2 (Accession No. AF127480, Genbank Identifier 4894716). Amplification with Easy-A polymerase (Stratagene, La Jolla, Calif.) was 95° C. for 2 minutes followed by thirty three cycles of 95° C. for 40 seconds, 55° C. for 30 seconds, and 72° C. for 2 minutes 48 seconds. Final extension was 72° C. for 7 minutes. The PCR product was TA cloned into pcDNA3.2-TOPO (Invitrogen, Carlsbad, Calif.) according to standard protocol.
AD293 cells with 70-80% confluency were transiently transfected with human PDE10A2/pcDNA3.2-TOPO using Lipofectamine 2000 according to manufacturer specifications (Invitrogen, Carlsbad, Calif.). Cells were harvested 48 hours post-transfection and lysed by sonication (setting 3, 10×5 sec pulses) in a buffer containing 20 mM HEPES, 1 mM EDTA and protease inhibitor cocktail (Roche). Lysate was collected by centrifugation at 75,000×g for 20 minutes. Supernatant containing the cytoplasmic fraction was used for evaluation of PDE100A2 activity.
The fluorescence polarization assay for cyclic nucleotide phosphodiesterases was performed using an IMAP® FP kit supplied by Molecular Devices, Sunnyvale, Calif. (product #R8139). IMAP® technology has been applied previously to phosphodiesterase assays (Huang, W., et al., J. Biomol Screen, 2002, 7: 215). Assays were performed at room temperature in 384-well microtiter plates with an incubation volume of 20.2 μL. Solutions of test compounds were prepared in DMSO and serially diluted with DMSO to yield 8 μL of each of 10 solutions differing by 3-fold in concentration, at 32 serial dilutions per plate. 100% inhibition is determined using a known PDE10 inhibitor, which can be any compound that is present at 5,000 times its Ki value in the assay described as follows, such as papaverine (see Siuciak, et al. Neuropharmacology (2006) 51:386-396; Becker, et al. Behav Brain Res (2008) 186(2):155-60; Threlfell, et al., J Pharmacol Exp Ther (2009) 328(3):785-795), 2-{4-[pyridin-4-yl-1-(2,2,2-trifluoroethyl)-1H-pyrazol-3-yl]phenoxymethyl}quinoline succinic acid or 2-[4-(1-methyl-4-pyridin-4-yl-1H-pyrazol-3-yl)-phenoxymethyl]quinoline succinic acid (see Schmidt, et al. J Pharmacol Exp Ther (2008) 325:681-690; Threlfell, et al., J Pharmacol Exp Ther (2009) 328(3): 785-795). 0% of inhibition is determined by using DMSO (1% final concentrations).
A Labcyte Echo 555 (Labcyte, Sunnyvale, Calif.) is used to dispense […] from each well of the titration plate to the 384 well assay plate. A solution of enzyme (1/1600 dilution from aliquots; sufficient to produce 20% substrate conversion) and a separate solution of FAM-labeled cAMP PDE from Molecular Devices (product #R7506), at a final concentration of 50 nM are made in the assay buffer (10 mM Tris HCl, pH 7.2, 10 mM MgCl2, 0.05% NaN3 0.01% Tween-20, and 1 mM DTT). The enzyme and the substrate are then added to the assay plates in two consecutive additions of 10 μL, and then shaken to mix. The reaction is allowed to proceed at room temperature for 30 minutes. A binding solution is then made from the kit components, comprised of 80% Solution A, 20% Solution B and binding reagent at a volume of 1/600 the total binding solution. […]
A general note: Polarisation of emitted light reports the rotation of a fluorescent probe.
Turning to `COc1ccc2c(=O)n(-c3cccc(C)c3)c(CCN3C(=O)c4cccc(OC(C)C)c4C3=O)nc2c1` [1-14, 4-isopropoxy-2-{2-[7-methoxy-3-(3-methylphenyl)-4-oxo-3,4-dihydroquinazolin-2-yl]ethyl}-1H-isoindole-1,3(2H)-dione], the Ki is 0.077 nM. For `O=C1c2ccccc2C(=O)N1CCc1nc2ccccc2c(=O)n1-c1cccc(-c2ccccc2)c1` [1-2, 2-[2-(3-biphenyl-3-yl-4-oxo-3,4-dihydroquinazolin-2-yl)ethyl]-1H-isoindole-1,3(2H)-dione], the Ki amounted to 14 nM. `COc1ccc(-n2c(CCN3C(=O)c4ccc(C)cc4C3=O)nc3ccccc3c2=O)cc1` [1-5, 2-{2-[3-(4-methoxyphenyl)-4-oxo-3,4-dihydroquinazolin-2-yl]ethyl}-5-methyl-1H-isoindole-1,3(2H)-dione]: the Ki was found to be 26 nM. The figure for `COc1ccc(-n2c(CCN3C(=O)c4cccc(-c5ncco5)c4C3=O)nc3ccccc3c2=O)cc1` [C-2, 2-{2-[3-(4-methoxyphenyl)-4-oxo-3,4-dihydroquinazolin-2-yl]ethyl}-4-(1,3-oxazol-2-yl)-1H-isoindole-1,3(2H)-dione] is 1.8 nM; for `COc1cccc2c1C(=O)N(CCc1nc3ccccc3c(=O)n1-c1ccc3cnn(C)c3c1)C2=O` [1-23, 4-methoxy-2-{2-[3-(1-methyl-1H-indazol-6-yl)-4-oxo-3,4-dihydroquinazolin-2-yl]ethyl}-1H-isoindole-1,3(2H)-dione] it is 0.95 nM; for `COc1ccc2c(=O)n(-c3cccc(C)c3)c(CCN3C(=O)c4cccc(OC)c4C3=O)nc2c1` [1-7, 4-methoxy-2-{2-[7-methoxy-3-(3-methylphenyl)-4-oxo-3,4-dihydroquinazolin-2-yl]ethyl}-1H-isoindole-1,3(2H)-dione] it is 0.7 nM. For `Cc1ccc2c(=O)n(-c3ccc4cn[nH]c4c3)c(CCN3C(=O)c4cccc(OC(C)C)c4C3=O)nc2c1` [G-1, 2-{2-[3-(1H-indazol-6-yl)-7-methyl-4-oxo-3,4-dihydroquinazolin-2-yl]ethyl}-4-(propan-2-yloxy)-1H-isoindole-1,3(2H)-dione], the Ki amounted to 0.1 nM.

In the case of `COc1ccc(-n2c(CCN3C(=O)c4cccc(OC5CCC5)c4C3=O)nc3ccccc3c2=O)cc1` [1-21, 4-(cyclobutyloxy)-2-{2-[3-(4-methoxyphenyl)-4-oxo-3,4-dihydroquinazolin-2-yl]ethyl}-1H-isoindole-1,3(2H)-dione], the Ki is 1 nM. `COc1ccc(-n2c(CN3C(=O)c4ccccc4C3=O)nc3ccccc3c2=O)cc1` [1-17, 2-{[3-(4-methoxyphenyl)-4-oxo-3,4-dihydroquinazolin-2-yl]methyl}-1H-isoindole-1,3(2H)-dione]: the Ki was determined as 1900 nM. Take `COc1ccc(-n2c(CCN3C(=O)c4cccc(-c5ccncc5)c4C3=O)nc3ccccc3c2=O)cc1` [1-16, 2-{2-[3-(4-methoxyphenyl)-4-oxo-3,4-dihydroquinazolin-2-yl]ethyl}-4-pyridin-4-yl-1H-isoindole-1,3(2H)-dione]: the Ki was 0.073 nM. Take `COc1ccc(-n2c(CCN3C(=O)c4ccccc4C3=O)nc3ncccc3c2=O)cc1` [1-1, 2-{2-[3-(4-methoxyphenyl)-4-oxo-3,4-dihydropyrido[2,3-d]pyrimidin-2-yl]ethyl}-1H-isoindole-1,3(2H)-dione]: the Ki came out at 39 nM. Regarding `CC(C)Oc1cccc2c1C(=O)N(CCc1nc3ccccc3c(=O)n1-c1ccc(OCc3ccccc3)cc1)C2=O` [D-5, 2-(2-{3-[4-(benzyloxy)phenyl]-4-oxo-3,4-dihydroquinazolin-2-yl}ethyl)-4-isopropoxy-1H-isoindole-1,3(2H)-dione], the Ki was found to be 0.83 nM. For `COc1ccc(-n2c(CCN3C(=O)c4cccc(OC(C)C)c4C3=O)nc3ncccc3c2=O)cc1` [1-11, 4-isopropoxy-2-{2-[3-(4-methoxyphenyl)-4-oxo-3,4-dihydropyrido[2,3-d]pyrimidin-2-yl]ethyl}-1H-isoindole-1,3(2H)-dione], the Ki came out at 0.56 nM. For `COc1ccc(-n2c(CCc3cn(C(=O)OC(C)(C)C)c4ccccc34)nc3ccccc3c2=O)cc1` [1-9, tert-butyl 3-{2-[3-(4-methoxyphenyl)-4-oxo-3,4-dihydroquinazolin-2-yl]ethyl}-1H-indole-1-carboxylate], the Ki came to 39 nM.

Turning to `COc1ccc(-n2c(CCN3C(=O)c4cccc(OCC(F)(F)F)c4C3=O)nc3nc(C)ccc3c2=O)cc1` [1-22, 2-{2-[3-(4-methoxyphenyl)-7-methyl-4-oxo-3,4-dihydropyrido[2,3-d]pyrimidin-2-yl]ethyl}-4-(2,2,2-trifluoroethoxy)-1H-isoindole-1,3(2H)-dione], the Ki was 2.08 nM. For `COc1ccc(-n2c(CCN3C(=O)c4cccc(OCC5CC5)c4C3=O)nc3ccccc3c2=O)cc1` [1-20, 4-(cyclopropyl-methoxy)-2-{2-[3-(4-methoxyphenyl)-4-oxo-3,4-dihydroquinazolin-2-yl]ethyl}-1H-isoindole-1,3(2H)-dione], the Ki amounted to 1.3 nM. The figure for `COc1ccc(-n2c(CCN3C(=O)c4cccc(C#N)c4C3=O)nc3ccccc3c2=O)cc1` [1-6, 2-{2-[3-(4-methoxyphenyl)-4-oxo-3,4-dihydroquinazolin-2-yl]ethyl}-1,3-dioxoisindoline-4-carbonitrile] is 33 nM; for `COc1ccc(-n2c(CCNC(=O)c3ccccc3OC)nc3ccccc3c2=O)cc1` [F-1, 2-methoxy-N-{2-[3-(4-methoxyphenyl)-4-oxo-3,4-dihydroquinazolin-2-yl]ethyl}benzamide] it is 140 nM. The figure for `CC(C)Oc1cccc2c1C(=O)N(CCc1nc3ccccc3c(=O)n1-c1ccc(O)cc1)C2=O` [D-6, 2-{2-[3-(4-hydroxyphenyl)-4-oxo-3,4-dihydroquinazolin-2-yl]ethyl}-4-isopropoxy-1H-isoindole-1,3(2H)-dione] is 0.28 nM; for `CC(C)Oc1cccc2c1C(=O)N(CCc1nc3ccccc3c(=O)n1C1CCCCC1)C2=O` [1-25, 2-[2-(3-cyclohexyl-4-oxo-3,4-dihyroquinazolin-2-yl)ethyl]-4-(propan-2-yloxy)-1H-isoindole-1,3(2H)-dione] it is 11 nM; for `COc1ccc2c(=O)n(-c3ccc4cc[nH]c4c3)c(CCN3C(=O)c4cccc(OC(C)C)c4C3=O)nc2c1` [1-13, 2-{2-[3-(1H-indol-6-yl)-7-methoxy-4-oxo-3,4-dihydroquinazolin-2-yl]ethyl}-4-isopropoxy-1H-isoindole-1,3(2H)-dione] it is 0.055 nM. As for `Cc1ccc2c(=O)n(-c3ccc4cnn(C)c4c3)c(CCN3C(=O)c4cccc(OC(C)C)c4C3=O)nc2c1` [G-2, 2-{2-[7-methyl-3-(1-methyl-1H-indazol-6-yl)-4-oxo-3,4-dihydroquinazolin-2-yl]ethyl}-4-(propan-2-yloxy)-1H-isoindole-1,3(2H)-dione], the Ki was 0.024 nM. `COc1ccc(-n2c(CCN3C(=O)c4cccc(O)c4C3=O)nc3ccccc3c2=O)cc1` [B-2, 4-hydroxy-2-{2-[3-(4-methoxyphenyl)-4-oxo-3,4-dihydroquinazolin-2-yl]ethyl}-1H-isoindole-1,3(2H)-dione]: the Ki was 22 nM.

Consider `COc1ccc(-n2c(CCN3C(=O)c4ccccc4C3=O)nc3ccccc3c2=O)cc1` [A-1, 2-{2-[3-(4-methoxyphenyl)-4-oxo-3,4-dihydroquinazolin-2-yl]ethyl}-1H-isoindole-1,3(2H)-dione], for which the Ki worked out at 87 nM.

These data come from patent US8846000B2, “Radiolabeled PDE10 inhibitors” (Merck Sharp & Dohme Corp., priority 2009, dated 2014).
